Results taken from patent US20260125375A1 (Pfizer Inc., priority 2022, published 2026).

Key:
[1] = molecular target: T1, C-CBL (residues 46-435) (Homo sapiens, UniProt P22681); assay: Ligand Displacement Assay (LDA), HTRF competitive binding against BODIPY-labeled fluorescent tracer, C-CBL; conditions: geometric mean of the number of tests, read-out: C-CBL Ki (nM) GMean
T1 construct: Purified CBL-B (residues 36-427) and C-CBL (residues 46-435) proteins from baculovirus-infected insect cells; made in house; host or cells: baculovirus-infected insect cells
T1 sequence (P22681 46-435): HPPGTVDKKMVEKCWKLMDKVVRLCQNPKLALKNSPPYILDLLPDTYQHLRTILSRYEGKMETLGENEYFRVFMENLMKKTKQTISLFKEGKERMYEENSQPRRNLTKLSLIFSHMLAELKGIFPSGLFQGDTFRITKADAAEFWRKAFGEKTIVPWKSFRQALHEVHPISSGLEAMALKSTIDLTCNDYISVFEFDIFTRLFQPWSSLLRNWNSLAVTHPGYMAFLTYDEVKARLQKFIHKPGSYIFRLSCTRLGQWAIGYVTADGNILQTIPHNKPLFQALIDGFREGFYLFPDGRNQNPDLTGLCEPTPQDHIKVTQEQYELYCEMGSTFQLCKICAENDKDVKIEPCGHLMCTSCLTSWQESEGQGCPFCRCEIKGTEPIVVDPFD
Summary of the method: (§1)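 Insect-cell (baculovirus) protein, N-term AviTag biotinylated via BirA, captured by SA-Tb; BODIPY tracer, KD measured per protein. 3-fold serial dilutions, duplicate, […], 2% DMSO final. Ki (nM) = geomean of runs.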

[2] = molecular target: T2, CBL-B (residues 36-427) (Homo sapiens, UniProt Q13191); assay: Ligand Displacement Assay (LDA), HTRF competitive binding against BODIPY-labeled fluorescent tracer, CBL-B; conditions: geometric mean of the number of tests, read-out: CBL-B Ki (nM) GMean
T2 construct: Purified CBL-B (residues 36-427) and C-CBL (residues 46-435) proteins from baculovirus-infected insect cells; made in house; host or cells: baculovirus-infected insect cells
Summary of the method: as §1

[3] = molecular target: T3, C-CBL (46-435) (Homo sapiens, UniProt P22681); assay: Surface Plasmon Resonance (SPR) assay, binding affinity and kinetics, C-CBL; conditions: SPR at 10° C., biotinylated C-CBL (46-435) on streptavidin chip; geometric mean; read-out: C-CBL SPR Kd (nM) GMean
T3 construct: N-terminal biotinylated WT CBL-B (36-427) and C-CBL (46-435) were captured on a streptavidin (SA) coated sensor chip
T3 sequence (P22681 46-435): T1 sequence (P22681 46-435)
Summary of the method: (§2)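 Biotinylated WT CBL-B (36-427) or C-CBL (46-435) captured on streptavidin chip (~5000–6000 RU); binding at 10° C in HEPES buffer pH 7.2 with 2% DMSO. Multi-cycle: 2-fold, 10-point series from 10 or 100 μM, 90 s association. Single-cycle: 3-fold, 6-point, 0.001–1 μM, 120 s association, >5400 s dissociation.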

[4] = molecular target: T4, WT CBL-B (36-427) (Homo sapiens, UniProt Q13191); assay: Surface Plasmon Resonance (SPR) assay, binding affinity and kinetics, CBL-B; conditions: SPR at 10° C., biotinylated WT CBL-B (36-427) on streptavidin chip; geometric mean; read-out: CBL-B SPR Kd (nM) GMean
T4 construct: N-terminal biotinylated WT CBL-B (36-427) and C-CBL (46-435) were captured on a streptavidin (SA) coated sensor chip
Summary of the method: as §2

CC(N)c1nc(C(F)(F)F)cc2c(-c3cccc(C4(Cc5nncn5C)COC4)c3)n[nH]c12 (single isomer, unassigned) [Example K17, (1ξ)-1-[3-(3-{3-[(4-methyl-4H-1,2,4-triazol-3-yl)methyl]oxetan-3-yl}phenyl)-5-(trifluoromethyl)-1H-pyrazolo[3,4-c]pyridin-7-yl]ethan-1-amine]
Ki [1]: 145 nM
Ki [2]: 44.6 nM
Kd [3]: 256 nM
Kd [4]: 27.3 nM

CNc1nc(C(F)(F)F)cc2c(-c3cccc(C4(Cc5nncn5C)COC4)c3)n[nH]c12 [Example J8, N-methyl-3-(3-{3-[(4-methyl-4H-1,2,4-triazol-3-yl)methyl]oxetan-3-yl}phenyl)-5-(trifluoromethyl)-1H-pyrazolo[3,4-c]pyridin-7-amine]
Ki [1]: 251 nM
Ki [2]: 69.3 nM
Kd [3]: 136 nM
Kd [4]: 16.1 nM

Cn1cnnc1CC1(c2cccc(-c3n[nH]c4c(CN5CC[C@@H](F)C5)nc(C(F)(F)F)cc34)c2)COC1 [Example C71, 7-{[(3R)-3-fluoropyrrolidin-1-yl]methyl}-3-(3-{3-[(4-methyl-4H-1,2,4-triazol-3-yl)methyl]oxetan-3-yl}phenyl)-5-(trifluoromethyl)-1H-pyrazolo[3,4-c]pyridine]
Ki [1]: 124 nM
Ki [2]: 25.5 nM
Kd [3]: 108 nM
Kd [4]: 10.8 nM

Cn1cnnc1CC1(c2cccc(-c3n[nH]c4c(CN5CCNC(=O)C5)nc(C(F)(F)F)cc34)c2)COC1 [Example C55, 4-{[3-(3-{3-[(4-methyl-4H-1,2,4-triazol-3-yl)methyl]oxetan-3-yl}phenyl)-5-(trifluoromethyl)-1H-pyrazolo[3,4-c]pyridin-7-yl]methyl}piperazin-2-one]
Ki [1]: 65.3 nM
Ki [2]: 21.2 nM
Kd [3]: 27.6 nM
Kd [4]: 3 nM

CC(NC1CC(F)(F)C1)c1nc(C(F)(F)F)cc2c(-c3cccc(C4(Cc5nncn5C)COC4)c3)n[nH]c12 (single isomer, unassigned) [Example C94, 3,3-difluoro-N-{(1ξ)-1-[3-(3-{3-[(4-methyl-4H-1,2,4-triazol-3-yl)methyl]oxetan-3-yl}phenyl)-5-(trifluoromethyl)-1H-pyrazolo[3,4-c]pyridin-7-yl]ethyl}cyclobutan-1-amine]
Ki [1]: 14.9 nM
Ki [2]: 2.8 nM
Kd [3]: 15 nM
Kd [4]: 2.5 nM

Cn1cnnc1[C@@H](c1cccc(-c2n[nH]c3c(CN4CCNC(=O)C4)nc(C(F)(F)F)cc23)c1)C1CCC1 [Example C112, 4-{[3-{3-[(R)-cyclobutyl(4-methyl-4H-1,2,4-triazol-3-yl)methyl]phenyl}-5-(trifluoromethyl)-1H-pyrazolo[3,4-c]pyridin-7-yl]methyl}piperazin-2-one]
Ki [1]: 114 nM
Ki [2]: 15.4 nM
Kd [3]: 82.1 nM
Kd [4]: 3 nM

Cn1cnnc1[C@@H](c1cccc(-c2n[nH]c3c(CN[C@H]4CC[C@@H](O)C4)nc(C(F)(F)F)cc23)c1)C1CCC1 [Example D87]
Ki [1]: 112 nM
Ki [2]: 12.2 nM
Kd [3]: 128 nM
Kd [4]: 4.8 nM

CC(N[C@H]1CCOC1)c1nc(C(F)(F)F)cc2c(-c3cccc(C4(Cc5nncn5C)COC4)c3)n[nH]c12 (single isomer, unassigned) [Example C82]
Ki [1]: 23.3 nM
Ki [2]: 5.2 nM
Kd [3]: 17 nM
Kd [4]: 2.3 nM

C[C@@H](c1nc(C(F)(F)F)cc2c(-c3cccc(C4(Cc5nncn5C)COC4)c3)n[nH]c12)N1CC[C@H](F)C1 (single isomer, unassigned) [Example D97]
Ki [1]: 139 nM
Ki [2]: 25 nM
Kd [3]: 230 nM
Kd [4]: 31.9 nM

Cn1cnnc1CC1(c2cccc(-c3n[nH]c4c(CCN)nc(C(F)(F)F)cc34)c2)COC1 [Example K5, 2-[3-(3-{3-[(4-methyl-4H-1,2,4-triazol-3-yl)methyl]oxetan-3-yl}phenyl)-5-(trifluoromethyl)-1H-pyrazolo[3,4-c]pyridin-7-yl]ethan-1-amine]
Ki [1]: 199 nM
Ki [2]: 55.3 nM
Kd [3]: 221 nM
Kd [4]: 23.6 nM

Cn1cnnc1CC1(c2cccc(-c3n[nH]c4c(CN5C[C@@H](F)[C@@H](F)C5)nc(C(F)(F)F)cc34)c2)COC1 [Example C67, 7-{[(3R,4S)-3,4-difluoropyrrolidin-1-yl]methyl}-3-(3-{3-[(4-methyl-4H-1,2,4-triazol-3-yl)methyl]oxetan-3-yl}phenyl)-5-(trifluoromethyl)-1H-pyrazolo[3,4-c]pyridine]
Ki [1]: 72.1 nM
Ki [2]: 12.6 nM
Kd [3]: 51 nM
Kd [4]: 4.4 nM

CC(NC1CC(F)(F)C1)c1nc(C(F)(F)F)cc2c(-c3cccc(C4(Cc5nncn5C)COC4)c3)n[nH]c12 (single isomer, unassigned) [Example C93, 3,3-difluoro-N-{(1ξ)-1-[3-(3-{3-[(4-methyl-4H-1,2,4-triazol-3-yl)methyl]oxetan-3-yl}phenyl)-5-(trifluoromethyl)-1H-pyrazolo[3,4-c]pyridin-7-yl]ethyl}cyclobutan-1-amine]
Ki [1]: 15.9 nM
Ki [2]: 3.6 nM
Kd [3]: 21.7 nM
Kd [4]: 2.3 nM

C[C@@H](N)c1nc(C(F)(F)F)cc2c(-c3cccc([C@H](c4nncn4C)C4CCC4)c3)n[nH]c12 [Example K13, (1R)-1-[3-{3-[(R)-cyclobutyl(4-methyl-4H-1,2,4-triazol-3-yl)methyl]phenyl}-5-(trifluoromethyl)-1H-pyrazolo[3,4-c]pyridin-7-yl]ethan-1-amine]
Ki [1]: 215 nM
Ki [2]: 27 nM
Kd [3]: 285 nM
Kd [4]: 12.1 nM

C[C@@H](c1nc(C(F)(F)F)cc2c(-c3cccc(C4(Cc5nncn5C)COC4)c3)n[nH]c12)N1CC[C@H](F)C1 (single isomer, unassigned) [Example D98]
Ki [1]: 110 nM
Ki [2]: 25.5 nM
Kd [3]: 217 nM
Kd [4]: 46 nM

Cn1cnnc1CC1(c2cccc(-c3n[nH]c4cnc(OC(F)(F)F)cc34)c2)COC1 [Example B9, 3-(3-{3-[(4-methyl-4H-1,2,4-triazol-3-yl)methyl]oxetan-3-yl}phenyl)-5-(trifluoromethoxy)-1H-pyrazolo[3,4-c]pyridine]
Ki [1]: 238 nM
Ki [2]: 74.5 nM
Kd [3]: 244 nM
Kd [4]: 32.5 nM

Cn1cnnc1CC1(c2cccc(-c3n[nH]c4c(CN5CCOCC5)nc(C(F)(F)F)cc34)c2)COC1 [Example C63, 3-(3-{3-[(4-methyl-4H-1,2,4-triazol-3-yl)methyl]oxetan-3-yl}phenyl)-7-[(morpholin-4-yl)methyl]-5-(trifluoromethyl)-1H-pyrazolo[3,4-c]pyridine]
Ki [1]: 120 nM
Ki [2]: 27 nM
Kd [3]: 91.8 nM
Kd [4]: 8 nM

Cn1cnnc1[C@@H](c1cccc(-c2n[nH]c3c(CN4CCCC4)nc(C(F)(F)F)cc23)c1)C1CCC1 [Example D94]
Ki [1]: 192 nM
Ki [2]: 29.2 nM
Kd [3]: 163 nM
Kd [4]: 5.5 nM

C[C@H](c1nc(C(F)(F)F)cc2c(-c3cccc([C@H](c4nncn4C)C4CCC4)c3)n[nH]c12)N1CCNC(=O)C1 (single isomer, unassigned) [Example D89]
Ki [1]: 290 nM
Ki [2]: 20.9 nM
Kd [3]: 307 nM
Kd [4]: 11 nM

Cn1cnnc1CC1(c2cccc(-c3n[nH]c4c(CN5C[C@H](F)[C@@H](F)C5)nc(C(F)(F)F)cc34)c2)COC1 [Example C68, 7-{[(3S,4S)-3,4-difluoropyrrolidin-1-yl]methyl}-3-(3-{3-[(4-methyl-4H-1,2,4-triazol-3-yl)methyl]oxetan-3-yl}phenyl)-5-(trifluoromethyl)-1H-pyrazolo[3,4-c]pyridine]
Ki [1]: 124 nM
Ki [2]: 24.8 nM
Kd [3]: 122 nM
Kd [4]: 10.7 nM

CC(NC1CC2(COC2)C1)c1nc(C(F)(F)F)cc2c(-c3cccc([C@H](c4nncn4C)C4CCC4)c3)n[nH]c12 (single isomer, unassigned) [Example C97]
Ki [1]: 141 nM
Ki [2]: 31.8 nM
Kd [3]: 242 nM
Kd [4]: 9.6 nM

CNCc1nc(C(F)(F)F)cc2c(-c3cccc([C@H](c4nncn4C)C4CCC4)c3)n[nH]c12 [Example C103, 1-[3-{3-[(R)-cyclobutyl(4-methyl-4H-1,2,4-triazol-3-yl)methyl]phenyl}-5-(trifluoromethyl)-1H-pyrazolo[3,4-c]pyridin-7-yl]-N-methylmethanamine]
Ki [1]: 389 nM
Ki [2]: 46 nM
Kd [3]: 349 nM
Kd [4]: 20.5 nM
